Experiments:
weiblichen Ratten = assay: Blood-sugar-lowering effect in fasted female rats (glucose by hexokinase method); format: in vivo; design: key: n.s.: statistisch nicht signifikant; conditions: rats fasted 24 h
Description: Die blutzuckersenkende Wirkung der zu untersuchenden Substanzen wurde an weiblichen Ratten eigener Zucht mit dem Gewicht von 180-220 g geprüft, welche 24 Stunden vor Versuchsbeginn nüchtern gesetzt wurden. Die zu untersuchenden Substanzen wurden unmittelbar vor Versuchsbeginn in 1,5%- iger Methylcellulose suspendiert und per Schlundsonde appliziert.
Die Blutentnahme erfolgte unmittelbar vor Substanzapplikation, sowie 1, 2, 3 und 4 Stunden danach jeweils aus dem retroorbitalen Venenplexus. Hiervon wurden jeweils 50 Fl mit 0,5 ml 0,33 N Perchlorsäure enteiweißt und zentrifugiert. Im überstand wurde Glukose nach der Hexokinase-Methode mit Hilfe eines Analysenphotometers bestimmt. Die statistische Auswertung erfolgte nach dem t-Test nach Student mit p = 0,05 als Signifikanzgrenze.
Die nachfolgende Tabelle enthält die gefundenen Werte in Prozent gegenüber Kontrolle: […]

[1] = system: weiblichen und männlichen Mäusen; assay: Acute toxicity in mice after a single oral dose; format: in vivo; conditions: observation at least 7 days; for Tieren gestorben: single oral dose of 1 000 mg/kg; for orientierende Toxizität: single oral dose
Description: Bei weiblichen und männlichen Mäusen eigener Zucht mit dem Gewicht von 20-26 g wurde die toxische Wirkung der Substanzen nach oraler Gabe (Suspension in 1%iger Methylcellulose) einer einmaligen Dosis bei einer Nachbeobachtungszeit von mindestens 7 Tagen geprüft. Die nachfolgende Tabelle enthält die gefundenen Werte: […]

[2] = 5 mg/kg by gavage, 1 hour after administration
[3] = 5 mg/kg by gavage, 2 hours after administration
[4] = 5 mg/kg by gavage, 3 hours after administration
[5] = 5 mg/kg by gavage, 4 hours after administration

Structure (SMILES): O=C(O)c1ccc(CCNC(=O)c2cc(Cl)ccc2N2CCC3CCCC2C3)cc1 (stereo not drawn) [Substanz A, 4-[2-[2-(2-Azabicyclo[3.3.1]nonan-2-yl)-5-chlor-benzoyl-amino]-äthyl]benzoesäure]
- Blutzuckersenkende Wirkung, Werte in Prozent gegenüber Kontrolle (weiblichen Ratten; [2]): -42 Prozent
- Blutzuckersenkende Wirkung, Werte in Prozent gegenüber Kontrolle (weiblichen Ratten; [3]): -43 Prozent
- Blutzuckersenkende Wirkung, Werte in Prozent gegenüber Kontrolle (weiblichen Ratten; [4]): -36 Prozent
- Blutzuckersenkende Wirkung, Werte in Prozent gegenüber Kontrolle (weiblichen Ratten; [5]): -32 Prozent

Structure (SMILES): O=C(O)c1ccc(CCNC(=O)c2cc(F)ccc2N2CCCCCCCC2)cc1 [Substanz B, 4-[2-[5-Fluor-2-(octahydro-1H-azonino)-benzoylamino]äthyl]-benzoesäure]
- Blutzuckersenkende Wirkung, Werte in Prozent gegenüber Kontrolle (weiblichen Ratten; [2]): -31 Prozent
- Blutzuckersenkende Wirkung, Werte in Prozent gegenüber Kontrolle (weiblichen Ratten; [3]): -36 Prozent
- Blutzuckersenkende Wirkung, Werte in Prozent gegenüber Kontrolle (weiblichen Ratten; [4]): -34 Prozent
- Blutzuckersenkende Wirkung, Werte in Prozent gegenüber Kontrolle (weiblichen Ratten; [5]): -34 Prozent

Structure (SMILES): C[C@@H]1C[C@H](C)CN(c2ncc(Cl)cc2C(=O)NCCc2ccc(C(=O)O)cc2)C1 [Substanz C]
- Blutzuckersenkende Wirkung, Werte in Prozent gegenüber Kontrolle (weiblichen Ratten; [2]): -37 Prozent
- Blutzuckersenkende Wirkung, Werte in Prozent gegenüber Kontrolle (weiblichen Ratten; [3]): -39 Prozent
- Blutzuckersenkende Wirkung, Werte in Prozent gegenüber Kontrolle (weiblichen Ratten; [4]): -40 Prozent
- Blutzuckersenkende Wirkung, Werte in Prozent gegenüber Kontrolle (weiblichen Ratten; [5]): -38 Prozent
- Tieren gestorben [1]: 0 von 10
- orientierende Toxizität [1]: > 1 000 mg/kg

Structure (SMILES): Cc1ccc(N2CCCCCCCC2)c(C(=O)NCCc2ccc(C(=O)O)cc2)c1 [Substanz D, 4-[2-[5-Methyl-2-(octahydro-1H-azonino)-benzoylamino]-äthyl]-benzoesäure]
- Blutzuckersenkende Wirkung, Werte in Prozent gegenüber Kontrolle (weiblichen Ratten; [2]): -30 Prozent
- Blutzuckersenkende Wirkung, Werte in Prozent gegenüber Kontrolle (weiblichen Ratten; [3]): -34 Prozent
- Blutzuckersenkende Wirkung, Werte in Prozent gegenüber Kontrolle (weiblichen Ratten; [4]): -35 Prozent
- Blutzuckersenkende Wirkung, Werte in Prozent gegenüber Kontrolle (weiblichen Ratten; [5]): -26 Prozent

Structure (SMILES): CCNc1ccc(Cl)cc1C(=O)NCCc1ccc(C(=O)O)cc1 [Substanz E, 4-[2-(2-Äthylamino-5-chlor-benzoylamino)-äthyl]benzoesäure, reference compound]
- Blutzuckersenkende Wirkung, Werte in Prozent gegenüber Kontrolle (weiblichen Ratten; 25 mg/kg by gavage, 1 hour after administration): n.s.
- Blutzuckersenkende Wirkung, Werte in Prozent gegenüber Kontrolle (weiblichen Ratten; 25 mg/kg by gavage, 2 hours after administration): n.s.
- Blutzuckersenkende Wirkung, Werte in Prozent gegenüber Kontrolle (weiblichen Ratten; 25 mg/kg by gavage, 3 hours after administration): n.s.
- Blutzuckersenkende Wirkung, Werte in Prozent gegenüber Kontrolle (weiblichen Ratten; 25 mg/kg by gavage, 4 hours after administration): n.s.

Structure (SMILES): CCC(CC)C1CCN(c2ccc(Cl)cc2C(=O)O)CC1 [Substanz F, 5-Chlor-2-[4-(3-pentyl)-piperidino]benzoesäure]
- Tieren gestorben [1]: 0 von 10
- orientierende Toxizität [1]: > 1 000 mg/kg

From patent EP0056144A1, “Carboxylic acid derivatives, their preparation and use as pharmaceuticals” (Dr. Karl Thomae GmbH, priority 1981, dated 1982)
